This series is described as follows: in vitro. Particulars: human, hela cells, % viability.

With `Cn1ccnc1C1(O)CCN(C(=O)c2cccc(F)c2)CC1` [CBK283543], the viability at 28.5 h, 10 µM is 107%.
As to `CCOc1ccccc1-c1ccccc1NC(=O)c1cc(=O)n(C)c2ccccc12` [CBK285843], the viability at 28.5 h, 10 µM turned out to be 100%.
On the same count and under the same terms, the value for `O=[N+]([O-])c1ccccc1N/N=C/c1c[nH]c2ccccc12` [CBK261679] was 89.6%.
The same measure, in the same setting: the value for `Cc1ccccc1OCc1nnc(SCc2c(Cl)cccc2[N+](=O)[O-])n1C` [CBK265846] was 92.4%.
On the same count and under the same terms, in the case of `CSCCN1CCN(c2nccnc2OCC2COc3ccccc3O2)CC1` (centres unmarked) [CBK082806T] it was 85.2%.
Consider `O=S(=O)(NCc1ccccn1)c1ccc(Br)cc1Br` [CBK262291], for which the viability at 28.5 h, 10 µM was 93.2%.
The same measure, in the same setting: in the case of `O=C(CCS(=O)(=O)c1ccccc1)NCc1ccccc1OC1CCNC1` (centres unmarked) [CBK028296T] it was 95.9%; in that of `CCn1cnc2sc(-c3ccccc3)cc2c1=O` [CBK287952], 65.7%.
On the same count and under the same terms, in the case of `O=C(O)CC1S/C(=N/N=C/c2ccc(-c3ccc(Cl)cc3)o2)NC1=O` (centres unmarked) [CBK264595] it was 125%; in that of `O=C(Nc1nc(-c2cccc([N+](=O)[O-])c2)cs1)c1ccc(S(=O)(=O)N2CCCC2)cc1` [CBK102813], 86.5%.
Still for that read-out and setting: in the case of `Nc1cccc(-c2cn(C[C@H]3CC4CCN3C[C@@H]4C(=O)NC3CCCCC3)nn2)c1` (some centres unmarked) [CBK289083] it was 84.2%; in that of `Cc1cc2c(cc1C)C(O)CC1(CCN(C(=O)c3ccco3)CC1)O2` (centres unmarked) [CBK282839], 84%; in that of `COc1ccc(-c2nc(O)cc(C(F)(F)F)n2)cc1` [CBK003515], 86.3%.
Turning to `CCOC(=O)N1CCC2(CC1)Oc1ccc(-c3ccc(OC)cc3OC)cc1O2` [CBK091467], where the note is “bulk resorufin, single well”, the viability at 28.5 h, 10 µM worked out at 99.7%.
Turning to `CC(C)(C)c1ccccc1NC(=O)N(CCCN)Cc1cc(F)cc(F)c1` [CBK034697C], the viability at 28.5 h, 10 µM worked out at 82.7%.
For `O=S(=O)(Cc1ccc(Cl)cc1)Nc1cccc2[nH]ccc12` [CBK153531], the viability at 28.5 h, 10 µM came to 99.5%.
Still for that read-out and setting: the value for `C=CCn1c(SCC(=O)Nc2cccc(F)c2)nnc1-c1ccccc1O` [CBK269620] was 83%; that for `CCOC(=O)N1CCC(NC(=O)N2CCCC(CO)C2)CC1` (centres unmarked) [CBK156345] was 90.6%.
Still for that read-out and setting: in the case of `Cc1nc2cc(C(=O)N3CCC(c4ccccc4)C3)ccc2n1C` (centres unmarked) [CBK281841] it was 66.5%.
The same measure, in the same setting: the value for `O=C(N/N=C/c1c(O)ccc2ccccc12)c1cnccn1` [CBK262400] was 105%.
`COc1ccc2c(c1)c1nc(C)sc1n2CCN1CCCCC1` [CBK269909C]: the viability at 28.5 h, 10 µM is 93.3%.
Same read-out and setting: in the case of `CC(=O)Nc1sc2c(c1C(=O)O)CCc1ccccc1-2` [CBK126812] it was 96.9%; in that of `COc1ccccc1N1CCN(CC(=O)NC2CC3CCC2C3)CC1` (centres unmarked) [CBK269162], 94.8%; in that of `CC(=O)c1cc2cnccc2[nH]c1=O` [CBK089771], 86.5%.
On the same count and under the same terms, in the case of `O=C1NCCC[C@@H]1NC(=O)[C@H]1CN(C(=O)c2ccccc2)CCN1C(=O)c1cccnc1` [CBK289634] it was 108%; in that of `CC(Cc1ccccn1)NC(=O)Cc1ccc2c(c1)CCCO2` (centres unmarked) [CBK282115], 95%; in that of `CCOc1ccc(S(=O)(=O)N2CCCN(Cc3ccc(F)cc3F)CC2)c2cccnc12` [CBK062757], 109%.
Same read-out and setting: the value for `CSc1ncc(Cl)c(C(=O)Nc2sc3c(c2C(=O)NCc2ccco2)CCC3)n1` [CBK268991] was 97.2%; that for `Cn1c(=O)n(Cc2ccc(Cl)cc2)c2cccnc21` [CBK282333] was 101%; that for `COc1ccc(Sc2nc(SC)nc(-c3ccccc3)c2C#N)cc1` [CBK291212] was 94%.
Regarding `OCCC1CNCCN1Cc1ccc(F)c(F)c1` (centres unmarked) [CBK269824], the viability at 28.5 h, 10 µM turned out to be 85.6%.
On the same count and under the same terms, the value for `CCCc1cc(O)nc(SCC(=O)Nc2ccc(Cl)cc2Cl)n1` [CBK265147] was 83.7%.

The values are drawn from publication PMC12040169 (PLOS Biology, 2025).
